According to US20230265151A1, “GIP/GLP1 CO-AGONIST COMPOUNDS” (priority 2020, published 2023):
Read-outs that look alike come from different tables or passages of the source.

Tests used:
Type in all cases: cell-based
[1] = target: T1, hGCGR (Homo sapiens, UniProt P47871); assay: Functional cAMP formation (HTRF) in HEK-293 clonal cells expressing hGCGR, 0.1% bovine casein, without or with 1.0% human serum albumin; settings: 37° C.
T1 construct: expressed in transfected cells
How it was run: (§1)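 Readings of the HTRF 665/620 nm ratio, which falls as cAMP rises, were converted to nM cAMP using a standard curve after 30 min peptide exposure at 37° C.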

[2] = target: T2, hGIPR (Homo sapiens, UniProt P48546); assay: Functional cAMP formation (HTRF) in HEK-293 clonal cells expressing hGIPR, 0.1% bovine casein, without or with 1.0% human serum albumin; settings: for Emax: percent of maximal response to GIP(1-42)NH2; for EC50: cAMP, read-out: hGIPR EC50, nM (SEM, n)
T2 construct: expressed in transfected cells
T2 sequence (P48546 22-466): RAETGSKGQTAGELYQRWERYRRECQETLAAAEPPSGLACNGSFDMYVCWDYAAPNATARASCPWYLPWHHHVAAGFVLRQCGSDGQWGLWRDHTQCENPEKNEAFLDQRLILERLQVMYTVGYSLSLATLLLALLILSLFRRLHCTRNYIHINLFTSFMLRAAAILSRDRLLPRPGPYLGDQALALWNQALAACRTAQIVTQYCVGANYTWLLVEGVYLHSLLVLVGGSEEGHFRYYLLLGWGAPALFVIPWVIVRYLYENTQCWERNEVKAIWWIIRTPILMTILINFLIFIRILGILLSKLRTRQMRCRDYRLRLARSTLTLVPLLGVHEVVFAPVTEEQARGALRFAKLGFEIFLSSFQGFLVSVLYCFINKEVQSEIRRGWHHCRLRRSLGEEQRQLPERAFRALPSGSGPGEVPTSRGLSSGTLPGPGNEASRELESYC
How it was run: as §1

[3] = target: hGLP-1R (Homo sapiens, UniProt P43220); assay: Functional cAMP formation (HTRF) in HEK-293 clonal cells expressing hGLP-1R, 0.1% bovine casein, without or with 1.0% human serum albumin; parameters: expressed in transfected cells; settings: for EC50: cAMP, 0.1% bovine casein (no human serum albumin), geometric mean; for Emax: percent of maximal response to GLP-1(7-36)NH2, arithmetic mean
How it was run: as §1

[4] = hGCGR EC50, nM (SEM, n), 0.1% bovine casein and 1.0% human serum albumin, geometric mean
[5] = hGCGR EC50, nM (SEM, n), cAMP, 0.1% bovine casein (no human serum albumin), geometric mean
[6] = HEK293, read-out: hGIPR Emax, % ± SEM, cAMP, 37° C., 0.1% bovine casein, arithmetic mean
[7] = cAMP, 0.1% bovine casein (no human serum albumin), geometric mean, read-out: hGCGR EC50, nM (SEM, n)
[8] = 37° C., 0.1% bovine casein (no human serum albumin), geometric mean
[9] = 37° C., read-out: hGLP-1R EC50, nM (SEM, n)

Sequence of hGLP-1R (P43220 24-463): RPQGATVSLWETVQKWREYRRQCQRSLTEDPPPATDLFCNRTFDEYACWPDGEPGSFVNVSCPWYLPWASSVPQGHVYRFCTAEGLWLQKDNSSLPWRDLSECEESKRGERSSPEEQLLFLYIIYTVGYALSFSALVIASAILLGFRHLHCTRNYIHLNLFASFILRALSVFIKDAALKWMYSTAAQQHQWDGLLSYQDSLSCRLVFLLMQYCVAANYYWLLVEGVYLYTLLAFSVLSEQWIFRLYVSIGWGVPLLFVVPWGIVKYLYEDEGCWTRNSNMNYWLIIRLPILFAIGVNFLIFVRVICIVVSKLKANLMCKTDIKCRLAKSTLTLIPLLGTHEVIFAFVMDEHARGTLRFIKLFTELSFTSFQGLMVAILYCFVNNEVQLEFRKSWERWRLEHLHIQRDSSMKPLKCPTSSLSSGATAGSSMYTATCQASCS
T1 sequence (P47871 26-477): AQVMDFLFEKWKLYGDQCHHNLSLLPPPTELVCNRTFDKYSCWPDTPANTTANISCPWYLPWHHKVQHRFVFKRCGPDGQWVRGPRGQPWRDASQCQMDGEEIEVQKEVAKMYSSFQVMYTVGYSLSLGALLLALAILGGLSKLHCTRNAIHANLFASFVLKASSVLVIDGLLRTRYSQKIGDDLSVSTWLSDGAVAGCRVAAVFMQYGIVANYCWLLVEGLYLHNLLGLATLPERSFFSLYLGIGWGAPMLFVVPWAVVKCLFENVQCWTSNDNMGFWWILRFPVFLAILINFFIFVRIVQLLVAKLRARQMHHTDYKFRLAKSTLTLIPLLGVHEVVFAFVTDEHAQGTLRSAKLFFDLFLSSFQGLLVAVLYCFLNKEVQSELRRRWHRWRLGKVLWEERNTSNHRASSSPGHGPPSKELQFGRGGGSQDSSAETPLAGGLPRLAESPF

Compound	EC50 [1, 4] [nM]	EC50 [1, 5] [nM]	Emax [2, 6] [%]	EC50 ([3]; hGLP-1R EC50, nM (SEM, n), 37° C.) [nM]	EC50 ([1]; 0.1% bovine casein and 1.0% human serum albumin, geometric mean, read-out: hGCGR EC50, nM (SEM, n)) [nM]	EC50 [1, 7] [nM]	EC50 [2, 8] [nM]	EC50 [3, 9] [nM]	Emax ([2]; HEK293, read-out: hGIPR Emax, % ± SEM, 0.1% bovine casein and 1.0% human serum albumin, 37° C.) [%]	Emax ([3]; HEK293, read-out: hGLP-1R Emax, % ± SEM, cAMP, 37° C., 0.1% bovine casein) [%]	EC50 ([1]; cAMP, 0.1% bovine casein and 1.0% human serum albumin, geometric mean (SEM, n), read-out: hGCGR EC50, nM (SEM, n)) [nM]	Emax ([2]; HEK293, cAMP, 37° C., 0.1% bovine casein and 1.0% human serum albumin, read-out: hGIPR Emax, % ± SEM) [%]	Emax ([2]; HEK293, cAMP, 37° C., 0.1% bovine casein, arithmetic mean, read-out: hGIPR Emax, % ± SEM) [%]	EC50 ([2]; 37° C., 0.1% bovine casein and 1.0% human serum albumin, geometric mean (SEM, n)) [nM]	Emax ([3]; HEK293, cAMP, 37° C., 0.1% bovine casein, read-out: hGLP-1R Emax, % ± SEM) [%]
CCCC[C@H](NC(=O)[C@H](CC(=O)O)NC(=O)[C@H](CO)NC(=O)[C@@H](NC(=O)[C@](C)(Cc1ccccc1F)NC(=O)[C@@H](NC(=O)CNC(=O)[C@H](CCC(=O)O)NC(=O)C(C)(C)NC(=O)[C@@H](N)Cc1ccc(O)cc1)[C@@H](C)O)[C@@H](C)O)C(=O)N[C@@H](CO)C(=O)N[C@H](C(=O)N[C@@](C)(CC(C)C)C(=O)N[C@@H](CC(C)C)C(=O)N[C@@H](CC(=O)O)C(=O)N[C@@H](CCCN)C(=O)N[C@H](C(=O)N[C@@H](C)C(=O)N[C@@H](CCC(N)=O)C(=O)NC(C)(C)C(=O)N[C@@H](CCC(=O)O)C(=O)N[C@@H](Cc1ccccc1)C(=O)N[C@H](C(=O)N[C@@H](CCCCNC(=O)COCCOCCNC(=O)COCCOCCNC(=O)CC[C@H](NC(=O)CCCCCCCCCOc1ccc(C(=O)O)cc1)C(=O)O)C(=O)N[C@@](C)(Cc1ccc(O)cc1)C(=O)N[C@@H](CC(C)C)C(=O)N[C@H](C(=O)N[C@@H](CCCCNC(=O)COCCOCCNC(=O)COCCOCCNC(=O)CC[C@H](NC(=O)CCCCCCCCCOc1ccc(C(=O)O)cc1)C(=O)O)C(=O)NCC(=O)NCC(=O)N1CCC[C@H]1C(=O)N[C@@H](CO)C(=O)N[C@@H](CO)C(=O)NCC(=O)N[C@@H](C)C(=O)N1CCC[C@H]1C(=O)N1CCC[C@H]1C(=O)N1CCC[C@H]1C(=O)N[C@@H](CO)C(N)=O)[C@@H](C)CC)[C@@H](C)CC)[C@@H](C)CC)[C@@H](C)CC [Example 314]	> 9950	> 9950	100	0.673	–	–	–	–	–	–	–	–	–	–	–
CCCCCCCCCCCC(=O)N[C@@H](CCC(=O)NCCOCCOCC(=O)NCCOCCOCC(=O)NCCCC[C@H](NC(=O)[C@H](CCCN)NC(=O)[C@H](CC(=O)O)NC(=O)[C@H](CC(C)C)NC(=O)[C@](C)(CC(C)C)NC(=O)[C@@H](NC(=O)[C@H](CO)NC(=O)[C@H](Cc1ccncc1)NC(=O)[C@H](CC(=O)O)NC(=O)[C@H](CO)NC(=O)[C@@H](NC(=O)[C@](C)(Cc1ccccc1F)NC(=O)[C@@H](NC(=O)CNC(=O)[C@H](CCC(=O)O)NC(=O)C(C)(C)NC(=O)[C@@H](N)Cc1ccc(O)cc1)[C@@H](C)O)[C@@H](C)O)[C@@H](C)CC)C(=O)N[C@@H](C)C(=O)N[C@@H](CCC(N)=O)C(=O)NC(C)(C)C(=O)N[C@@H](CCCN)C(=O)N[C@@H](Cc1ccccc1)C(=O)N[C@H](C(=O)N[C@H](CCC(=O)O)C(=O)N[C@@](C)(Cc1ccc(O)cc1)C(=O)N[C@@H](CC(C)C)C(=O)N[C@H](C(=O)N[C@@H](CCCCNC(=O)COCCOCCNC(=O)COCCOCCNC(=O)CC[C@H](NC(=O)CCCCCCCCCCC)C(=O)O)C(=O)NCC(=O)NCC(=O)N1CCC[C@H]1C(=O)N[C@@H](CO)C(=O)N[C@@H](CO)C(=O)NCC(=O)N[C@@H](C)C(=O)N1CCC[C@H]1C(=O)N1CCC[C@H]1C(=O)N1CCC[C@H]1C(=O)N[C@@H](CO)C(N)=O)[C@@H](C)CC)[C@@H](C)CC)C(=O)O [Example 299]	–	–	–	–	> 9950	> 9950	0.0104	0.126	–	–	–	–	–	–	–
CC[C@H](C)[C@H](NC(=O)[C@H](CCCN)NC(=O)[C@H](CC(=O)O)NC(=O)[C@H](CC(C)C)NC(=O)[C@](C)(CC(C)C)NC(=O)[C@@H](NC(=O)[C@H](CO)NC(=O)[C@H](Cc1ccncc1)NC(=O)[C@H](CC(=O)O)NC(=O)[C@H](CO)NC(=O)[C@@H](NC(=O)[C@](C)(Cc1ccccc1F)NC(=O)[C@@H](NC(=O)CNC(=O)[C@H](CCC(=O)O)NC(=O)C(C)(C)NC(=O)[C@@H](N)Cc1ccc(O)cc1)[C@@H](C)O)[C@@H](C)O)[C@@H](C)CC)C(=O)N[C@@H](C)C(=O)N[C@@H](CCC(N)=O)C(=O)NC(C)(C)C(=O)N[C@@H](CCCCNC(=O)COCCOCCNC(=O)COCCOCCNC(=O)CC[C@H](NC(=O)CCCCCCCCCCOc1ccc(C(=O)O)cc1)C(=O)O)C(=O)N[C@@H](Cc1ccccc1)C(=O)N[C@H](C(=O)N[C@H](CCC(=O)O)C(=O)N[C@@](C)(Cc1ccc(O)cc1)C(=O)N[C@@H](CC(C)C)C(=O)N[C@H](C(=O)N[C@@H](CCCCNC(=O)COCCOCCNC(=O)COCCOCCNC(=O)CC[C@H](NC(=O)CCCCCCCCCCOc1ccc(C(=O)O)cc1)C(=O)O)C(=O)NCC(=O)NCC(=O)N1CCC[C@H]1C(=O)N[C@@H](CO)C(=O)N[C@@H](CO)C(=O)NCC(=O)N[C@@H](C)C(=O)N1CCC[C@H]1C(=O)N1CCC[C@H]1C(=O)N1CCC[C@H]1C(=O)N[C@@H](CO)C(N)=O)[C@@H](C)CC)[C@@H](C)CC [Example 287]	> 9950	> 9950	93	–	–	–	–	–	98.9	97.2	–	–	–	–	–
CC[C@H](C)[C@H](NC(=O)[C@H](CC(C)C)NC(=O)[C@](C)(Cc1ccc(O)cc1)NC(=O)[C@@H](CCC(=O)O)NC(=O)[C@@H](NC(=O)[C@H](Cc1ccccc1)NC(=O)[C@H](CCC(=O)O)NC(=O)C(C)(C)NC(=O)[C@H](CCC(N)=O)NC(=O)[C@H](C)NC(=O)[C@H](CCCCNC(=O)COCCOCCNC(=O)COCCOCCNC(=O)CCCCCCCCCCCCC(=O)O)NC(=O)[C@H](CCCN)NC(=O)[C@H](CC(=O)O)NC(=O)[C@H](CC(C)C)NC(=O)[C@](C)(CC(C)C)NC(=O)[C@@H](NC(=O)C(C)(C)NC(=O)[C@@H](NC(=O)[C@H](CC(=O)O)NC(=O)[C@H](CO)NC(=O)[C@@H](NC(=O)[C@](C)(Cc1ccccc1F)NC(=O)[C@@H](NC(=O)CNC(=O)[C@H](CCC(=O)O)NC(=O)C(C)(C)NC(=O)[C@@H](N)Cc1ccc(O)cc1)[C@@H](C)O)[C@@H](C)O)C(C)C)[C@@H](C)CC)[C@@H](C)CC)C(=O)N[C@@H](CCCCNC(=O)COCCOCCNC(=O)COCCOCCNC(=O)CCCCCCCCCCCCC(=O)O)C(=O)NCC(=O)NCC(=O)N1CCC[C@H]1C(=O)N[C@@H](CO)C(=O)N[C@@H](CO)C(=O)NCC(=O)N[C@@H](C)C(=O)N1CCC[C@H]1C(=O)N1CCC[C@H]1C(=O)N1CCC[C@H]1C(=O)N[C@@H](CO)C(N)=O [Example 389]	–	–	–	–	–	> 9950	0.0178	0.19	–	–	> 9950	82	94.6	1.5	92.4
